In PMC5522529, “Mechanisms of Paradoxical Activation of AMPK by the Kinase Inhibitors SU6656 and Sorafenib” (Cell Chemical Biology, 2017):

Tests used:
[1] = target: T1, human AMPK-α2 Y436F mutant (Homo sapiens, UniProt P54646, Y436F); experiment: AMPK activity of FLAG-tagged Y436F AMPK-α2 expressed in HEK293 cells; assay type: cell-based; details: SU6656 100 μM, phenformin 10 mM, A23187 10 μM, 1 hr
T1 construct: expressed in transfected cells; host or cells: HEK293 (transient transfection)
Protocol: Top: AMPK activity (mean ± SEM, n = 4); bottom: western blots showing phosphorylation of Thr172 on AMPK, and of ERK1/2, in cells treated with DMSO (control), SU6656 (100 μM), or PP2 (100 nM) (n = 2). (B) As (A), but in SYF cells. (C) HeLa cells were transfected with DNAs encoding GFP alone, or GFP fused to WT, Y261F/Y365F (FF), or Y36F/Y261F/Y365F (FFF) mutants of LKB1; cells were treated with increasing concentrations of SU6656 for 1 hr and AMPK activity determined (mean ± SEM, n = 4). See also Figure S1. (D) HEK293 cells were transfected with DNAs encoding FLAG-tagged AMPK-α2 with or without a Y436F mutation. Cells were incubated with DMSO (control), 100 μM SU6656, 10 mM phenformin, or 10 μM A23187 for 1 hr; AMPK complexes were immunoprecipitated using anti-FLAG antibody and assayed. The top panels show kinase activities (mean ± SD, n = 3); the bottom panels show blots from the same experiment (n = 2). In all panels, asterisks indicate significant differences from DMSO controls; in (D), there were no significant differences between the WT and Y463F mutant. **p < 0.01, ****p < 0.0001.

[2] = target: T2, LKB1 (Homo sapiens, UniProt Q15831); experiment: LKB1 assay using LKBtide peptide substrate; assay type: biochemical; details: alternative peptide substrate (LKBtide)
T2 construct: made in house; host or cells: Sf9 cells
T2 sequence (Q15831 whole entry): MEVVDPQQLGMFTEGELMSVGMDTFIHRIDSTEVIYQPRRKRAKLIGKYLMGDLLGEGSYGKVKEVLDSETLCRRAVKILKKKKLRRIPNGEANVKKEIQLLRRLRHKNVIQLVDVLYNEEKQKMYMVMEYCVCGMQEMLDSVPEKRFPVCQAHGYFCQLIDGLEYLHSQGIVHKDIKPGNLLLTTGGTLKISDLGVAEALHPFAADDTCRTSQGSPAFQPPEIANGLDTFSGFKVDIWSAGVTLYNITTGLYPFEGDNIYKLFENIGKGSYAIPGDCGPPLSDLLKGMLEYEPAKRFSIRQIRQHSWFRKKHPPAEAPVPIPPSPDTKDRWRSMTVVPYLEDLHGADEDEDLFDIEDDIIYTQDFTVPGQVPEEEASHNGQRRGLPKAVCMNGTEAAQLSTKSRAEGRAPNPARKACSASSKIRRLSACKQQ
T2 sequence (Q7RTN6 whole entry partner): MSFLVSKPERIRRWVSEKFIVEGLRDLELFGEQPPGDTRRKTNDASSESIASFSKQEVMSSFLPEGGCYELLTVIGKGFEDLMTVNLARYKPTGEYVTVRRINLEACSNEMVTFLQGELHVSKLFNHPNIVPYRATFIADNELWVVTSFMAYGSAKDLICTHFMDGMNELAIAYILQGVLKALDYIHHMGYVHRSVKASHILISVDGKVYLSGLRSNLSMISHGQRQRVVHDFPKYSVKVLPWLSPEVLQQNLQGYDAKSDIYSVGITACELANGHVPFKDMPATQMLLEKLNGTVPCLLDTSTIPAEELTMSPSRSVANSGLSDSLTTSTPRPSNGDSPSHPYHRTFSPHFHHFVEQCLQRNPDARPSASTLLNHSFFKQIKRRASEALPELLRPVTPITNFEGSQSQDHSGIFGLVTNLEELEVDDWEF
T2 sequence (Q9Y376 whole entry partner): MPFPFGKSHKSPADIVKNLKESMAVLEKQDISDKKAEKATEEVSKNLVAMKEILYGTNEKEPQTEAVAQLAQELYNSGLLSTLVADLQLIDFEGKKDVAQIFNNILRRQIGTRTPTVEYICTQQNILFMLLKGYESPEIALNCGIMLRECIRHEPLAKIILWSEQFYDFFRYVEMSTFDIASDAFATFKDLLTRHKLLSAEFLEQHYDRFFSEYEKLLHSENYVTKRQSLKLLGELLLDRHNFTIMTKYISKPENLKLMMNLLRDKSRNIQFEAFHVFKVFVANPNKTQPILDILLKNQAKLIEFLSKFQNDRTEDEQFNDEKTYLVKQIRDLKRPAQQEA
Protocol: We next used unphosphorylated α2-KD and tested the effect of SU6656 on its activation and phosphorylation by LKB1. […] There was no effect of SU6656 when LKB1 was assayed using an alternative peptide substrate (Figure S3), confirming that it acts by binding to AMPK rather than to LKB1. The half-maximal effect of SU6656 on α2-KD activation was at 0.20 ± 0.02 μM, close to the IC50 for inhibition of catalytic activity (0.22 ± 0.02 μM).
Endogenous AMPK was immunoprecipitated using the specified antibodies (for total AMPK, an equal mixture of anti-α1 and –α2 antibodies) and assayed at 200 μM ATP ([Hardie et al., 2000], [Towler et al., 2008]) using the AMARA peptide ([Dale et al., 1995]) as substrate, except for assays of allosteric activation by AMP (Figure 5A) where the SAMS peptide was used as substrate with 2 mM ATP ([Gowans et al., 2013]). The AMPK-related kinases SIK1, SIK2, SIK3, SNARK, MARK2/3 and MARK4 were immunoprecipitated and assayed as previously described ([Lizcano et al., 2004]) in lysates of Hela cells stably expressing LKB1 ([Fogarty et al., 2010]). LKB1 was assayed using the LKBtide peptide as substrate ([Sakamoto et al., 2004]).
LKB1 was assayed using the LKBtide peptide as substrate as
described in the Star Methods section.

[3] = tested on: Raptor; experiment: Raptor phosphorylation in HEK293 cells (western blot); assay type: cell-based, human; details: 1 hr
Protocol: Figure 1 SU6656 Activates AMPK but Not AMPK-Related Kinases (A) HEK293 cells were incubated with the indicated concentrations of SU6656 or berberine (300 μM) for 1 hr; total AMPK activity was assayed in immunoprecipitates (top; mean ± SEM, n = 4), and phosphorylation of AMPK (Thr172), ACC (Ser80), and Raptor (Ser792) analyzed by western blotting (bottom; n = 2). (B) HEK293 cells were incubated with 100 μM SU6656 (1 hr), AMPK complexes containing α1, α2, β1, and β2 immunoprecipitated using isoform-specific antibodies, and AMPK activity measured (mean ± SEM, n = 4). (C) HeLa cells stably expressing LKB1 ([Fogarty et al., 2010]) were incubated with 100 μM SU6656 for 1 hr, AMPK or individual ARKs immunoprecipitated, and kinase assays carried out (antibodies that distinguish MARK2/MARK3 were not available, so they were assayed together). Results are means ± SEM (n = 2). In all panels, asterisks indicate significant differences from controls without SU6656. *p < 0.05, **p < 0.01, ****p < 0.0001.
SDS-PAGE was performed using precast Bis-Tris 4–12% gradient polyacrylamide gels in the MOPS buffer system (ThermoFisher Scientific). Proteins were transferred to nitrocellulose membranes using the iBlot 2 system (ThermoFisher Scientific). […] Protein concentrations were determined by Coomassie Blue binding with bovine serum albumin as standard ([Bradford, 1976]). […]

T1 sequence (P54646 whole entry Y436F): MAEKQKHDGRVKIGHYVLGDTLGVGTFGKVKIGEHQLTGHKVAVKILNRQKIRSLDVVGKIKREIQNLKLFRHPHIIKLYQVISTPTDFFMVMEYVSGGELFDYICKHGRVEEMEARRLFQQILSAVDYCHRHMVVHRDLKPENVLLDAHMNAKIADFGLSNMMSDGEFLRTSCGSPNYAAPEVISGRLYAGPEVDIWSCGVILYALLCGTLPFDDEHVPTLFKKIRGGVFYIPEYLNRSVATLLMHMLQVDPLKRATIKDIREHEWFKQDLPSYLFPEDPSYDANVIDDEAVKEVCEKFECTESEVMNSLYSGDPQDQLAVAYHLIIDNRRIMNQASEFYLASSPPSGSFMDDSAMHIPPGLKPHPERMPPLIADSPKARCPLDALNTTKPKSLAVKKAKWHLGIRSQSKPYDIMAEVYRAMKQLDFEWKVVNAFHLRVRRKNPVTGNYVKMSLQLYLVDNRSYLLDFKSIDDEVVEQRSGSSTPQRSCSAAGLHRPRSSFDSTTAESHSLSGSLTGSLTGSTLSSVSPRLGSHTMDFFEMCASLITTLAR
T1 sequence (P54619 whole entry partner): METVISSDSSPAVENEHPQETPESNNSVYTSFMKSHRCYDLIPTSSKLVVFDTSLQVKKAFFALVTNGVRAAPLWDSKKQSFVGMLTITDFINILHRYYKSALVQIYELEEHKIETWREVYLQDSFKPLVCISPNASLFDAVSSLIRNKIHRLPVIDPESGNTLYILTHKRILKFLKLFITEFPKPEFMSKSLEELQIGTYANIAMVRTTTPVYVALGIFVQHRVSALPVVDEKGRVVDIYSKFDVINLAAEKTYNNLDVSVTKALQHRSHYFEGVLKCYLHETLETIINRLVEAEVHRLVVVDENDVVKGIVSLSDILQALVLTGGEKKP

AMPK activation response with Y436F mutation [1] | effect on LKB1 activity [2] | SMILES | Raptor phosphorylation [3]
unaffected by the Y436F mutation | no effect | CN(C)S(=O)(=O)c1ccc2c(c1)/C(=C/c1cc3c([nH]1)CCCC3)C(=O)N2 [SU6656] | –
– | – | COc1ccc2cc3[n+](cc2c1OC)CCc1cc2c(cc1-3)OCO2 [berberine] | did promote Raptor phosphorylation
